Source: paper PMC9138683, “Decoding the Role of Melatonin Structure on Plasmodium falciparum Human Malaria Parasites Synchronization Using 2-Sulfenylindoles Derivatives” (Biomolecules, 2022)
Entries after “also recorded” stand apart in the source; their conditions may differ.

Experiments:
HEK293 cell line = experiment: Cytotoxicity assay (MTT); type: cell-based, human; settings: 72 h
Procedure: (§1) HEK293T (human embryonic kidney) cells were cultured in 75 cm^2 vented tissue culture flasks (Greiner Bio-One, Frickenhausen, Germany) at 37 °C in a humidified atmosphere containing 5% CO2 in Dulbecco’s modified […] (Gibco) supplemented with 10% (v/v) fetal bovine serum (Gibco), 100 U/mL penicillin, and 100 μg/mL streptomycin (Sigma). Cytotoxicity was evaluated with the 4,5-dimethylthiazol-2-yl-2,5-diphenyltetrazolium bromide (MTT) cell proliferation assay. Briefly, 10^4 cells/well were seeded in flat-bottom 96-well plates in complete DMEM medium for 24 h, followed by incubation with different concentrations of each compound (0.10–100 µM) for 72 h. DMSO (0.13%) and digitonin were used as the negative and positive controls, respectively. The concentrations of DMSO chosen as control were the concentration present in the tested compounds (from 0.0001% to 0.12%, two-fold dilution). After 72 h, cells were then incubated with the MTT reagent for 3 h, and absorbance was measured at 570 nm using a FlexStation® 3 Multi-Mode Microplate Reader (Molecular Devices, Sunnyvale, CA, USA). Moreover, we calculated the selectivity indexes (SI) to understand whether the compounds were more toxic to parasites than cells, or vice versa, according to the ratio of the CC50 value to the IC50 value for each compound.
(§2) We further assessed the toxicity of 2-sulfenylindole compounds against HEK293 cells using the MTT assay with different concentrations of the compounds for 72 h. Table 1 presents all the toxicity data and summarizes the IC50 values of the compounds evaluated in this study for Dd2 and 3D7 strains.

Cytotoxicity assay (MTT) = type: cell-based, human; settings: human, HEK293T (HEK293) cells, 0.10-100 µM, read-out: CC50 ± SD HEK293
Procedure: as §1, §2

P. falciparum 3D7 strain = experiment: Blood-stage development evaluation by microscopy; type: cell-based, Plasmodium falciparum
Procedure: Ring-stage parasites (10–14 h) at 1% parasitemia in 2% hematocrit were treated with compound 20 and compound 28 at concentrations of 1 and 30 µM in 24-well plates for 48 h. Treatment with chloroquine (20 nM) and DMSO (0.1%) was used as positive and negative controls. Smears were rapid stained (Panotico) every 12 h after treatment (12, 24, 36, 48, and 60 h time points), and we took images of parasites to assess the blood-stage development (Zeiss, Oberkochen, Germany).
During monitoring, parasites continued to develop throughout the cycle in the presence of both compounds. […] To examine its stage specificity, we monitored development every 12 h.
Figure 5 Parasitemia reduction with compound 20 (A) and compound 28 (B) to determine the stage activity. Data are means ± SD. Ring-stage synchronized parasites with sorbitol 5% were treated with chloroquine (20 nM), compound 20 (30 µM), and compound 28 (30 µM). The chosen treatment concentration was the IC50 values obtained for these compounds against the 3D7 parasites. (C) After drug administration, smears of P. falciparum 3D7 strain were taken at 0, 12, 24, 36, 48, and 60 h after drug administration, observing the growth development of treated parasites. * p ≤ 0.05, ** p ≤ 0.01, *** p ≤ 0.001.

[1] = tested on: P. falciparum 3D7 parasites; experiment: Effect of 2-sulfenylindoles in combination with 100 nM melatonin on parasitemia; type: cell-based, Plasmodium falciparum; settings: 3D7, 48 h; for Parasitemia (%), melatonin alone: 100 nM melatonin only, normalized to DMSO control (100.7%), combination experiment
Procedure: (§3) To evaluate the role of the compounds in parasitemia, 1% 3D7 parasites in 2% hematocrit were incubated for 48 h with 500 nM of the 2-sulfenylindole derivatives. Melatonin (100 nM) was used as a positive control, and DMSO (0.0013% v/v) was used as a negative control. The concentration of DMSO chosen as control was the concentration present in the tested compounds at 500 nM. The activity of the compounds was measured by SG-I and MT-Red staining. The data obtained were normalized to those of the control (DMSO). Additionally, to test the ability of the compounds to affect melatonin activity in parasitemia, 3D7 parasites were incubated with 500 nM indole compounds along with 100 nM melatonin for 48 h.
Following the assumption that compounds resembling melatonin structure might interact through the melatonin signaling pathways, we evaluated the effect of the compounds on melatonin action on parasitemia. Our next step was to study the combination of 2-sulfenylindoles with melatonin in asynchronous 3D7 by incubating parasites simultaneously with 100 nM melatonin and 500 nM of each compound.

[2] = tested on: Plasmodium falciparum 3D7 (chloroquine-sensitive); experiment: In vitro drug susceptibility assay, 3D7 strain (flow cytometry, SYBR Green I / MitoTracker Deep Red); type: cell-based; settings: Plasmodium falciparum, 3D7, 72 h, asynchronous parasites, 72 h, 0.1-100 µM; read-out: IC50 ± SD Pf3D7
Procedure: The cultures were maintained under an atmosphere of 5% CO2, 5% O2, and 90% N2. Fresh complete medium was provided daily, and rapid-stained (Panotico) blood smears were examined.
To evaluate the effects of synthetic compounds on the intraerythrocytic development of P. falciparum, we analyzed parasitemia by flow cytometry with 0.3% initial parasitemia and 1% hematocrit in the assay. Plates were incubated with the compounds at concentrations ranging from 0.10 to 100 µM for 72 h. Dual staining with SYBR Green I (SG-I) (Invitrogen, Waltham, MA, USA) and MitoTracker Deep Red (MT-Red) (Invitrogen) were used to label nucleic acids and mitochondria, respectively. Approximately 10,000 cells were counted by an Accuri C6 (Becton Dickinson, San Jose, CA, USA) and analyzed by FlowJo 5 software. Parasitemia was determined from the analysis of dot plots (side scatter versus fluorescence).
We determined the susceptibility of P. falciparum to the indole compounds and investigated whether CQR parasites responded differently to the compounds. […] We determined the IC50 values for each compound by analyzing viable and non-viable parasites after compound treatment, represented in dot plots (Figure 1H).

[3] = tested on: P. falciparum 3D7 parasites; experiment: Effects of indole derivatives (500 nM) on parasitemia; type: cell-based, Plasmodium falciparum; settings: for Parasitemia (%), melatonin alone: normalized to DMSO control (100.6%), compound-alone experiment
Procedure: as §3
After incubation, the final parasitemia was determined using flow cytometry.

[4] = tested on: CDPKs, PKG, and its accessory genes; experiment: Real-time PCR of CDPKs, PKG and accessory genes after melatonin treatment; type: cell-based, Plasmodium falciparum
Procedure: P. falciparum trophozoites (approximately 30–34 h post invasion) were treated with 100 nM and 1 µM melatonin (SIGMA-Aldrich, Burlington, MA, USA). RNA was extracted with Trizol (Life Technologies, Carlsbad, CA, USA) 1 and 3 h post treatment. cDNA synthesis was carried out using random primers and Superscript IV reverse transcriptase (Life Technologies) according to the manufacturer’s protocol. Oligonucleotides used are listed in Supplementary Table S1. SYBR Green incorporation was measured during PCR amplification performed on the 7300 Real-Time PCR System (Applied Biosystems, Foster City, CA, USA). The statistical analysis was performed by applying Student’s t-test on the log2 values of relative expression (delta delta Ct method) of the genes (normalized with the seryl t-RNA synthase housekeeping gene).
Previous studies have shown that melatonin alters the expression of the ubiquitin/proteasome system, mitochondrial FIS1, DYN2 [27], and nuclear PfMORC [28]. These findings lead us to investigate the effect of melatonin on kinases, phosphodiesterase, and cyclase for two reasons; first, kinases and their components are required for rupturing the parasites to facilitate egress in both asexual and sexual stages. […] We treated the late-stage trophozoite with two different melatonin concentrations (100 nM and 1 µM) for two time points (1 and 3 h). […] It is possible that melatonin may act upstream of PKG and modulates cytosolic calcium, but this hypothesis requires more experimental validation.
Figure 6 Differential transcription of CDPKs, PKG, and its accessory genes from parasites treated with melatonin for 1 and 3 h. Sorbitol synchronized parasites were treated with melatonin, and RNA samples were extracted, purified, and transcript level was investigated by RT-qPCR. Expression of genes has been normalized by housekeeping seryl-tRNA Synthetase expression for (A) 100 nM melatonin for 1 h; (B) 100 nM melatonin for 3 h; (C) 1 μM melatonin for 1 h; and (D) 1 μM melatonin for 3 h. […]

SMILES | cytotoxic effect against HEK293 cells (in words) (HEK293 cell line) | CC50 at 72 h (Cytotoxicity assay (MTT)) [µM] | effect on parasitemia during blood-stage progression (P. falciparum 3D7 strain; 3D7, ring-stage synchronized, 30 µM (IC50), Figure 5A,B) | stage-specific effect on blood-stage development (P. falciparum 3D7 strain; ring-stage synchronized 3D7, treated at IC50 (30 µM for 20 and 28), monitored every 12 h) | Parasitemia (%) Treatment with compound (500nM) + Melatonin (100nM) ([1]; normalized to DMSO control) [%] | IC50 [2] [µM] | effect on parasitemia (in words) ([3]; 500 nM compound alone, 3D7 asynchronous, 48 h) | increase in parasitemia ([3]; 500 nM compound, 3D7, 48 h, compared to DMSO control (100.6%)) [%] | activity at 0.5 µM ([3]; Plasmodium falciparum, 3D7, 48 h, normalized to DMSO control, read-out: Parasitemia (%) Treatment with compound (500nM)) [%] | Parasitemia (%), melatonin alone [1] [%] | Parasitemia (%), melatonin alone ([1]; listed as melatonin) [%] | change in gene expression ([4]; 100 nM melatonin for 1 h, late-stage trophozoite, CDPK1 and GCα) | change in gene expression ([4]; 100 nM melatonin, after 3 h, additional CDPK6, CDPK7, PKG, PDEα, and GCβ) | change in gene expression ([4]; 1 µM melatonin for 3 h, cGMP-dependent signaling component) | rise in parasitemia ([3]; 100 nM melatonin, 3D7, 48 h, from 100.6% (control)) [%] | Parasitemia (%), melatonin alone ([3]; 100 nM melatonin, 3D7, 48 h) [%] | Parasitemia (%), melatonin alone ([3]; 100 nM melatonin, 3D7, 48 h, listed as melatonin) [%]
COC(=O)Cc1c(SCCCCCCCCCCC(=O)O)[nH]c2ccccc12 [Compound 20] | low cytotoxic effect | > 100 | significantly affect parasitemia | affects RBC reinvasion | 122.3 ± 3.71 | 28.8 ± 4.86 | led to an increase in parasitemia; also recorded: significantly increase the parasitemia | 9.1 | 110 ± 4.07 | – | – | – | – | – | – | – | –
COc1ccc2[nH]cc(CCNC(C)=O)c2c1 [Melatonin] | – | – | – | – | – | – | – | – | – | 113.5 ± 2.75 | 113.5 | very minor effect | increased expression | most prominent effect | 6.9 | 107.5 ± 4.32 | 107.5
